Assay results published in patent publication US6008240A, “2-(1H-4(5)-imidazoyl) cyclopropyl derivatives” (Gliatech, Inc., priority 1997, dated 1999).

These molecules were tested against T1, Histamine H3 Receptor (Rattus norvegicus, UniProt Q9QYN8) (assay: In Vitro Histamine H3 Receptor Binding Analysis ([3H]-Nα-methylhistamine, rat cortical membranes)). Details: not given.
T1 construct: from tissue; host or cells: rat cerebral cortex membranes
Procedure: Histamine H3 receptor affinity was determined in rat cortical membranes using the H3 selective agonist ligand, [^3 H]-N^α -methylhistamine (78.9 Ci/mmole, DuPont NEN Research Products, Boston, Mass.) according to the method of West et al., (1990) Mol. Pharmacol. 38: 610-613 with modifications. Briefly, animals were sacrificed by decapitation and the cerebral cortex was rapidly removed. Rat cortices were mechanically homogenized with an Omni 1000 motor driven homogenizer in 10 volumes (wt/vol) of Krebs-Ringers Hepes buffer (pH 7.4) containing the following protease inhibitors; EDTA (10 mmol), PMSF (0.1 mM), chymostatin (0.2 mg/50 mL) and leupeptin (0.2 mg/50 mL). The homogenate was centrifuged in a Sorvall at ~40,000 x g for 30 min. The pellet was resuspended by mechanical homogenization in 25 mL water and lysed on ice for 30 min. The homogenate was recentrifuged and the membrane lysis was repeated. The membranes were recentrifuged and the final pellet was resuspended in 14 volumes of water to give approximately 200 μg protein/100 μl final concentration. The suspension was stored at -80° C. prior to use. Protein concentrations were determined by Coomassie Plus Protein Assay (Pierce, Rockford, Ill.).
Nonspecific binding (NSB) was accounted for by the inclusion of thioperamide (10 μM). Samples were incubated for 40 minutes at 25° C. The samples were filtered through glass fiber strips, pre-washed with 0.3% polyethyleneimine, using a Brandell cell harvester. The filters were rapidly washed three times with 4 ml of 25 mM Tris buffer containing 145 mM NaCl (pH 7.4, 4° C.). Filters were transferred to polyethylene minivials and counted in 3.5 ml of scintillation fluid (Ecolume, ICN Biomedicals, Inc.). Using this procedure, the non-specific binding was less than 10% of the total binding and the binding to the glass fiber filters was negligible. Saturation and competition experiments were analyzed with the ReceptorFit saturation and competition curve fitting programs (Lundon Software, Inc., Cleveland, Ohio).

T1 sequence (Q9QYN8 whole entry): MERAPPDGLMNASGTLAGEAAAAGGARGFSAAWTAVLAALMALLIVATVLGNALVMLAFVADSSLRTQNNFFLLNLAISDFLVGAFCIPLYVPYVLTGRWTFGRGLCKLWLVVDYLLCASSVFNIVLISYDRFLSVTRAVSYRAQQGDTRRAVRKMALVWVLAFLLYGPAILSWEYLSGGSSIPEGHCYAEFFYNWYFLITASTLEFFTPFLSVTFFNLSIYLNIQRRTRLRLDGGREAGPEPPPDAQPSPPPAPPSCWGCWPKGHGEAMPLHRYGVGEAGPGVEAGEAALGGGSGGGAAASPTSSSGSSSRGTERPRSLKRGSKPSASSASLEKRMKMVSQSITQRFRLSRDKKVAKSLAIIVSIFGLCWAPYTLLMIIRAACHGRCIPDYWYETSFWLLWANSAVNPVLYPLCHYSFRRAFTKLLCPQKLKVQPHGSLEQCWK

Compound	Ki [nM]
O=C(NCC1CCCCC1)[C@@H]1C[C@H]1c1c[nH]cn1 (relative stereo) [Example 2, (±)-trans-N-(cyclohexylmethyl)(2-imidazol-4-ylcyclopropyl)formamide]	37 ± 4
CC(C)CCC#C[C@@H]1C[C@H]1c1cnc[nH]1 (relative stereo) [Example 40, (±)-4-(2-(5-Methylhex-1-ynyl)cyclopropyl)imidazole]	6.5 ± 1.5
CC(C)(C)CC/C=C\[C@H]1C[C@H]1c1c[nH]cn1 [Example 42, (1R,2R)-4-(2-(5,5-Dimethyl-cis-hex-1-enyl)cyclopropyl)imidazole]	41 ± 4
O=C(N[C@H]1C[C@@H]1c1c[nH]cn1)[C@@H]1CC2CCCCC2N1 (stereo partly drawn) [Example 15, (2S, 3S)-trans-(7-Azabicyclo[4.3.0]non-(S)-8-yl)-N-(2-imidazol-4-ylcyclopropyl)formamide]	37 ± 4
C(=C\[C@H]1C[C@@H]1c1c[nH]cn1)/CCC1CCCCC1 [Example 25, (1S, 2S)-trans-4-(2-(4-Cyclohexylbut-trans-1-enyl)cyclopropyl)imidazole]	56 ± 9
O=C(N[C@@H]1C[C@H]1c1c[nH]cn1)OCc1ccccc1 (relative stereo) [Example 26, (±)-trans-N-(2-imidazol-4-ylcyclopropyl)(phenylmethoxy)formamide]	5.8 ± 0.4

Same assay, conditions: rat cortical membranes; 0.8-1.2 nM [3H]-Nα-methylhistamine; 40 minutes at 25° C.; pH 7.4; read-out: H3 Receptor Ki

Compound	Ki [nM]
O=C(NCC1CC1)[C@@H]1C[C@H]1c1c[nH]cn1 (relative stereo) [Example 32, (±)-trans-N-(Cyclopropylmethyl)(2-imidazol-4-ylcyclopropyl)formamide]	876 ± 158
O=C(N[C@@H]1C[C@H]1c1cnc[nH]1)OCCCC1CCCCC1 (relative stereo) [Example 48, (±)-trans-(3-Cyclohexylpropoxy)-N-(2-imidazol-4-ylcyclopropyl) formamide]	55 ± 11
O=C(NCC12CC3CC(CC(C3)C1)C2)[C@@H]1C[C@H]1c1c[nH]cn1 (relative stereo) [Example 8, (±)-trans-N-(adamantanylmethyl) (2-imidazol-4-ylcyclopropyl)formamide]	55 ± 6
c1nc([C@@H]2C[C@H]2COCCCC2CCCCC2)c[nH]1 (racemic) [Example 18, (±)-trans-(3-Cyclohexylpropoxy)(2-imidazol-4-ylcyclopropyl)methane]	240 ± 6
O=C(NCCc1c[nH]cn1)[C@@H]1C[C@H]1c1c[nH]cn1 (relative stereo) [Example 34, (±)-trans-(2-imidazol-4-ylcyclopropyl)-N-(2-imidazol-4-ylethyl) formamide]	227 ± 26
OC(CCCC1CCCCC1)[C@@H]1C[C@H]1c1c[nH]cn1 (mixture of isomers) [Example 19, (±)-trans4-Cyclohexyl-1-(2-imidazol-4-ylcyclopropyl)butan-1-ol]	160 ± 9
O=C(NCC(O)CC1CCCCC1)[C@@H]1C[C@H]1c1c[nH]cn1 (relative stereo) [Example 36, (±)-trans-N-(3-Cyclohexyl-2-(±)-hydroxypropyl)(2-imidazol-4-ylcyclopropyl)formamide]	145
C(=C/[C@H]1C[C@@H]1c1c[nH]cn1)/CCC1CCCCC1 [Example 24, (1S, 2S)-trans-4-(2-(4-Cyclohexylbut-cis-1-enyl)cyclopropyl)imidazole]	108 ± 3
N[C@@H](Cc1ccc(I)cc1)C(=O)N[C@@H]1C[C@H]1c1cnc[nH]1 [Example 44]	10.4 ± 1.6
CC(C)(C)CCC#C[C@@H]1C[C@H]1c1c[nH]cn1 (relative stereo) [Example 38, (±)-4-(2-(5,5-Dimethylhex-1-ynyl)cyclopropyl)imidazole]	0.33 ± 0.1
O=C(N[C@@H]1C[C@H]1c1cnc[nH]1)OCCCc1ccccc1 (relative stereo) [Example 47, (±)-trans-N-(2-imidazol-4-ylcyclopropyl)(3-phenylpropoxy)formamide]	41 ± 3.4
N[C@@H](Cc1ccc(Br)cc1)C(=O)N[C@@H]1C[C@H]1c1c[nH]cn1 [Example 45]	9.4 ± 1.1

Same assay, conditions: read-out: H3 Receptor Ki; rat cortical membranes; 0.8-1.2 nM [3H]-Nα-methylhistamine; 40 minutes at 25° C.; pH 7.4

Compound	Ki [nM]
O=C(NCC1CCCCC1)[C@H]1C[C@@H]1c1c[nH]cn1 [Example 2a]	23 ± 1
